The test system of one assay is MARC-145 cells. As to the kind of experiment: Virus titration of treated PRRSV on MARC-145 cells (inactivation curve). The settings on record: four hours at 37° C. Type of assay: cell-based.
The next assay deals with macrophages. As to the kind of experiment: Attachment, internalization, fusion and replication of inactivated PRRSV in macrophages by immunostaining and confocal microscopy. Type of assay: cell-based, porcine. The settings on record: 1 hpi. The source says:
The European strain Lelystad virus (LV) of PRRSV (Wensvoort et al., 1991) grown on MARC-145 cells (5th passage) was used for inactivation. MARC-145 cells cultivated in minimum Eagle's medium (MEM) with 5% FCS, 1% glutamine, 1% penicillin-streptomycin and 1% kanamycin were used for LV production and titration of inactivated virus. Attachment and internalization of the inactivated virus was investigated in macrophages that where cultivated in medium containing RPMI 1640, 10% FCS, 1% penicillin-streptomycin, 1% kanamycin, 1% gentamycin, 1% tylosin, 1% glutamine, 1% nonessential amino acids and 1% sodium pyruvate for 24 hours before inoculation. When CHO cells were used, the cells were cultivated in F12 with 10% FCS, 1% penicillin-streptomycin, 1% kanamycin, 1% glutamine, and 1% sodium pyruvate and were transfected with sialoadhesin. As the macrophages, the CHO cells were also cultivated 24 hours before inoculation. […]
Macrophages, CHO^Sn or CHO^Sn-CD163 cells were seeded at 200,000 cells/ml in a 24-well plate with insert. […] The virus particles were counted with a confocal microscope.

In assay [1] the test system is CHO^Sn-CD163 cell line IC5. Nature of the assay: Binding, internalization, fusion and infection in CHO^Sn-CD163 cell line IC5. Type of assay: cell-based, Chinese Hamster. The method, then: (§1) Macrophages or CHO cells (including CHO^Sn and CHO^Sn-CD163 cells, i.e., the CHO cells expressing sialoadhesin and CD163 deposited on May 14, 2008 at the Belgian Coordinated Collections of Microorganisms as CHO^Sn/CD163 IC5; CHO^Sn/CD163 ID9 and CHO^Sn/CD163 IF3 with the respective accession numbers (LMBP 6677CB, LMBP 6678CB, and […]) were incubated for one hour at 37° C. with the treated PRRSV and fixed with methanol. Then the capsid protein was stained with a primary antibody P3/27 and a secondary antibody goat-anti-mouse FITC. Confocal analysis was performed to determine the amount of internalized PRRSV.
(§2) Macrophages, CHO^Sn or CHO^Sn-CD163 cells were seeded at 200,000 cells/ml in a 24-well plate with insert. After two days, the cells were inoculated with wild-type Lelystad Virus (LV) grown on MARC-145 cells and inactivated LV grown on MARC-145 cells. The cells were fixed with methanol after one hour at 4° C. (binding; 0 hpi), one hour at 37° C. (internalization), five hours at 37° C. […] (infection) and 24 hours at 37° C. (infection). The virus was stained with a primary antibody P3/27 (anti-capsid) and a secondary antibody goat-anti-mouse FITC. The virus particles were counted with a confocal microscope.

Assay [2] deals with CHO^Sn-CD163 cell line ID9. As to the kind of experiment: Binding, internalization, fusion and infection in CHO^Sn-CD163 cell line ID9. Format: cell-based, Chinese Hamster. As for the experimental part: as §1, §2
The test system of assay [3] is CHO^Sn-CD163 cell line IF3. Nature of the assay: Binding, internalization, fusion and infection in CHO^Sn-CD163 cell line IF3. Format: cell-based, Chinese Hamster. As for the experimental part:
as §1, §2

Results on two molecules are retold here after patent US9545438B2, “Determination of antigenicity of an inactivated virus” (Universiteit Gent, priority 2008, dated 2017).

Method for MARC-145 cells: Formaldehyde was then removed by ultracentrifugation. Inactivation with glutaraldehyde was performed with purified virus (10^7 TCID50/ml) that was incubated for four hours at 37° C. with different concentrations (0-0.005-0.05-0.5-5 or 50 ng/ml) glutaraldehyde (Sigma) (Darnell et al., 2004). Glutaraldehyde was removed by ultracentrifugation afterwards. For inactivation with 2,2-dithiodipyridine (AT-2), purified virus (10^7 TCID50/ml) was incubated for four hours at 37° C. with different concentrations (0-10-30-100-300 or 1000 μM) AT-2 (Aldrich) (Rossio et al., 1998; Chertova et al., 2003). Afterwards, AT-2 was removed by ultracentrifugation. For inactivation by changing the pH, the pH was adjusted with HCl of 32% to pH2 and with NaOH to pH12. Purified virus (10^7 TCID50/ml) was incubated for several hours at a pH2 or at a pH12. After incubation, the pH was neutralized (Darnell et al., 2004). For inactivation of PRRSV at a certain temperature, purified virus (10^7 TCID50/ml) was incubated for several (0-6-12-24-48 or 72) hours at 37° C. […]
Virus titration was performed in a 96-well plate with a confluent monolayer of MARC-145 cells. […] After three to five days incubation at 37° C., the occurrence of cytopathic effect (CPE) was investigated and the 50% tissue culture infective dose (TCID50) could be calculated. […]

`O=CCCCC=O` [glutaraldehyde]: the “infectious virus detected by titration” value with MARC-145 cells (0.5 ng/ml glutaraldehyde or more) is listed as “no infectious virus could be detected”. In addition, the internalization in macrophages entry with macrophages (50 ng/ml glutaraldehyde) was “no longer able to internalize”. In addition, in assay [1], the “Binding (particles counted at 0 hpi)” value was 1 particles, the “Fusion (particles counted at 5 hpi)” value was determined as 0 particles, the “Infection 12 hpi (%)” value is on record as 0% and the “Infection 24 hpi (%)” value amounted to 0%. Besides, the “Internalization (particles counted at 1 hpi)” value in assay [1] turned out to be 0 particles. Moreover, in assay [2], the “Binding (particles counted at 0 hpi)” value is 0 particles, the “Fusion (particles counted at 5 hpi)” value turned out to be 0 particles, the “Infection 12 hpi (%)” value was found to be 0% and the “Infection 24 hpi (%)” value is given as 0%. Besides, in assay [2], the “Internalization (particles counted at 1 hpi)” value stood at 0 particles. For the same molecule, in assay [3], the “Binding (particles counted at 0 hpi)” value came out at 2 particles, the “Fusion (particles counted at 5 hpi)” value was determined as 1 particles, the “Infection 12 hpi (%)” value is 0% and the “Infection 24 hpi (%)” value was determined as 0%. The “Internalization (particles counted at 1 hpi)” value in assay [3] was found to be 0 particles.

`C=O` [formaldehyde]: in the assay on MARC-145 cells (lowest concentration of 10 pg/ml formaldehyde), the “infectious virus detected by titration” value is on record as “no infectious virus detected”. For the same molecule, the internalization in macrophages result with macrophages (0.1 ng/ml formaldehyde) was “no longer able to internalize”. In assay [1], the “Binding (particles counted at 0 hpi)” value was 0 particles, the “Fusion (particles counted at 5 hpi)” value was determined as 0 particles, the “Infection 12 hpi (%)” value was found to be 0% and the “Infection 24 hpi (%)” value was found to be 0%. The “Internalization (particles counted at 1 hpi)” value in assay [1] came to 0 particles. Also, in assay [2], the “Binding (particles counted at 0 hpi)” value was found to be 2 particles, the “Fusion (particles counted at 5 hpi)” value is recorded as 0 particles, the “Infection 12 hpi (%)” value is given as 0% and the “Infection 24 hpi (%)” value is 0%. The “Internalization (particles counted at 1 hpi)” value in assay [2] came to 0 particles. For the same molecule, in assay [3], the “Binding (particles counted at 0 hpi)” value is listed as 1 particles, the “Fusion (particles counted at 5 hpi)” value was 1 particles, the “Infection 12 hpi (%)” value is 0% and the “Infection 24 hpi (%)” value amounted to 0%. In assay [3], the “Internalization (particles counted at 1 hpi)” value worked out at 0 particles.
